Reference: paper PMC2779455, “The E3 Ubiquitin-Ligase Bmi1/Ring1A Controls the Proteasomal Degradation of Top2α Cleavage Complex – A Potentially New Drug Target” (PLoS ONE, 2009)

Molecular target: T1, Ring1A (Homo sapiens, UniProt Q06587)
T1 construct: gene RING1; recombinant GST fusion of Ring1A (N-terminal HA tag, C-terminal six-histidine tag) in complex with GST-Bmi1, from E. coli; with Bmi1
T1 sequence (Q06587 1-406): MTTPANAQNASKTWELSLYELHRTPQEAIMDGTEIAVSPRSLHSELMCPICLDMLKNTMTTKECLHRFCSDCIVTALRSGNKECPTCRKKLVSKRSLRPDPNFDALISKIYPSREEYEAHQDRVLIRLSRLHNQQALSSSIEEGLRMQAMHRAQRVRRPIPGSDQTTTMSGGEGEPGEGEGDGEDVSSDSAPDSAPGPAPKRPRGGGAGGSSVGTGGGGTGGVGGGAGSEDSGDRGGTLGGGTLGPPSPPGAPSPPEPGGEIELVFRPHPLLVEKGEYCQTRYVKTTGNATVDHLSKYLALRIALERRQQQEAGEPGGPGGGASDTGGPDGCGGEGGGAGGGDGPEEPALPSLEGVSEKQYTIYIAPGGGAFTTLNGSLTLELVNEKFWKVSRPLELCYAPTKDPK
T1 sequence (P35226 1-326 partner): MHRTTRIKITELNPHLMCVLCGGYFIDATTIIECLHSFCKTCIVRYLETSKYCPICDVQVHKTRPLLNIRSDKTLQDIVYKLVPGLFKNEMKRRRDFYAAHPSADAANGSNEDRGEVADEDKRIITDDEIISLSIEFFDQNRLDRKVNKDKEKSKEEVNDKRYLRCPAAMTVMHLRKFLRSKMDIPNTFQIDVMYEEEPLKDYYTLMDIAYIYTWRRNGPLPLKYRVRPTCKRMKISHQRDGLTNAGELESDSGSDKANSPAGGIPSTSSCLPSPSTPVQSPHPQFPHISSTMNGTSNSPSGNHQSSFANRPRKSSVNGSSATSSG
Assay: cell-free HTRF ubiquitination assay (E1, UbcH5a, Flag-ubiquitin), confirmed by gel-based Western blot
Format: biochemical

SMILES: O=C1C(=Cc2cccnc2)C(=O)c2ccccc21 [PRT4165]
- IC50: 3.9 µM
